According to PMC7582667, “A Series of Isatin-Hydrazones with Cytotoxic Activity and CDK2 Kinase Inhibitory Activity: A Potential Type II ATP Competitive Inhibitor” (Molecules, 2020):
Several values for one entry are separate records, joined by “and”; a condition that tells them apart may be missing. Equal entries are not always repeated.

Tests used:
[1] = test system: A2780 (human ovary adenocarcinoma) cell lines; assay: MTT cytotoxicity assay, A2780; format: cell-based; conditions: A2780 cells; for IC50: Homo sapiens, A2780, MTT assay, triplicates; for inhibitory activity against A2780 cell lines (in words): MTT assay
Experimental: (§1) The cytotoxicity of the synthesized compounds was evaluated by MTT assay, as previously described. Two cancer cell lines, MCF7 (human breast adenocarcinoma) and A2780 (human ovary adenocarcinoma), were used in this study, which were obtained from the ATCC (Rockville, MD, USA). They were sub-cultured in RPMI-1640 media (supplemented with 10% FBS and 1% antibiotics) at 37 °C and 5% CO2. Additionally, compounds were prepared at the same medium to obtain serial dilutions (50, 25, 19,1 and 0.1 µM). The two cell lines were separately cultured in 96-well plates (3 × 10^3/well) and incubated at 37 °C overnight. The following day, before treating the cells with the compounds, each well of the T0 plate was treated with 50 μL MTT solution (2 mg/mL in phosphate buffered saline) and then incubated for 2–4 h. The media were aspirated, and the formazan crystals were solubilized by adding 150 µL DMSO. Absorbance was read on a multi-plate reader (BioRad) at […]. Optical density of the purple formazan A550 was proportional to the number of viable cells. […] The data were obtained from triplicates and analyzed using statistical software.

[2] = test system: MCF7 (human breast adenocarcinoma) cell lines; assay: MTT cytotoxicity assay, MCF7; format: cell-based; conditions: MCF7 cells, triplicates
Experimental: as §1

CDK2/CyclinA2 = molecular target: T1, CDK2/CyclinA2 (Homo sapiens, UniProt P24941); assay: In vitro CDK2 inhibitory activity (CDK2 Assay Kit, Kinase-Glo MAX luminescence); format: biochemical; conditions: triplicate measurements, read-out: CDK2 Protein Kinase (IC50 in µM)
T1 construct: purchased #79599
Experimental: The CDK2 Assay Kit is designed to measure CDK2/CyclinA2 activity for screening and profiling applications, using Kinase-Glo® MAX as a detection reagent. The CDK2 Assay Kit comes in a convenient 96-well format, with enough purified recombinant CDK2/CyclinA2 enzyme, CDK substrate peptide, ATP and kinase assay buffer for 100 enzyme reactions. […] The CDK2/CyclinA2 activity at a single dose concentration of 10μM was performed, where the Kinase-Glo MAX luminescence kinase assay kit (Promega#V6071) was used. The compounds were diluted in 10% DMSO and 5 μL of the dilution was added to a 50 μL reaction so that the final concentration of DMSO was 1% in all of the reactions. All of the enzymatic reactions were conducted at 30 °C for 40 min. The 50 μL reaction mixture contained 40 mM Tris, pH 7.4, 10 mM MgCl2, 0.1 mg/mL BSA, 1 mM DTT, […], Kinase substrate and the enzyme (CDK2/CyclinA2). After the enzymatic reaction, 50 μL of Kinase-Glo® MAX Luminescence kinase assay solution was added to each reaction and the plates were incubated for 5 min at room temperature. Luminescence signal was measured using a Bio Tek Synergy 2 microplate reader.

Row | SMILES | IC50 [1] [µM] | melting point [°C] | IC50 [2] [µM] | inhibitory activity against A2780 cell lines (in words) [1] | IC50 (CDK2/CyclinA2)
1 | Cc1ccccc1C=NN=C1C(=O)Nc2ccccc21 [Compound 4a, 3-((2-Methylbenzylidene)hydrazono)indolin-2-one] | > 50 | 198 to 199 | 10.82 ± 0.05 |  | 
2 | Cc1cccc(C=NN=C2C(=O)Nc3ccccc32)c1 [Compound 4b, 3-((3-Methylbenzylidene)hydrazono)indolin-2-one] | > 50 | 183 to 184 | 14.7 |  | 
3 | Cc1ccc(C=NN=C2C(=O)Nc3ccccc32)cc1 [Compound 4c, 3-((4-Methylbenzylidene)hydrazono)indolin-2-one] | > 50 | 230 to 231 | 32.5 ± 0.52 |  | 
4 | CSc1ccc(C=NN=C2C(=O)Nc3ccccc32)cc1 [Compound 4d, 3-((4-(Methylthio)benzylidene)hydrazono)indolin-2-one] | > 50 | 204 to 205 | 24 ± 2.61 |  | 
5 | O=C1Nc2ccccc2C1=NN=Cc1ccccc1Br [Compound 4e, 3-((2-Bromobenzylidene)hydrazono)indolin-2-one] | 19 ± 2.52 | 233 to 234 | 5.46 ± 0.71 | a little inhibitory activity | 
6 | O=C1Nc2ccccc2C1=NN=Cc1cccc(Br)c1 [Compound 4f, 3-((3-Bromobenzylidene)hydrazono)indolin-2-one] | 25 ± 2.82 | 182 to 183 | 9.07 ± 0.59 | a little inhibitory activity | 
7 | O=C1Nc2ccccc2C1=NN=Cc1ccc(Br)cc1 [Compound 4g, 3-((4-Bromobenzylidene)hydrazono)indolin-2-one] | > 50 | 267 to 268 | 15.7 ± 0.78 |  | 
8 | COc1cc(C)c(C=NN=C2C(=O)Nc3ccccc32)c(C)c1 [Compound 4h, 3-((4-Methoxy-2,6-dimethylbenzylidene)hydrazono)indolin-2-one] | > 50 | 251 to 252 | 25.78 ± 0.13 |  | 
9 | COc1ccc(C=NN=C2C(=O)Nc3ccccc32)c(O)c1 [Compound 4i, 3-((2-Hydroxy-4-methoxybenzylidene)hydrazono)indolin-2-one] | > 50 | 242 to 243 | 7.77 ± 0.008 |  | 
10 | O=C1Nc2ccccc2C1=NN=Cc1c(Cl)cccc1Cl [Compound 4j, 3-((2,6-Dichlorobenzylidene)hydrazono)indolin-2-one] | 26 ± 2.24 | 286 to 287 | 1.51 ± 0.09 | a little inhibitory activity | 0.245 µM and 0.246 µM
11 | O=C1Nc2ccccc2C1=NN=Cc1c(F)cccc1Cl [Compound 4k, 3-((2-Chloro-6-fluorobenzylidene)hydrazono)indolin-2-one] | 27 ± 3.2 |  | 3.56 ± 0.31 | a little inhibitory activity | 0.3 µM and 0.301 µM
12 | COc1cccc2c1C(=O)c1c(O)c3c(c(O)c1C2=O)C[C@@](O)(C(=O)CO)C[C@@H]3O[C@H]1C[C@H](N)[C@H](O)[C@H](C)O1 [Doxorubicin, reference compound] | 0.2 ± 0.03 |  | 3.1 ± 0.29 |  | 
